Measured values taken from the NIST ThermoML archive (doi:10.1007/s10765-016-2109-2).
Numbers after ± are expanded uncertainties.

Tests used:
[1] = Liquid, isochoric method
[2] = molar heat capacity at saturation pressure; conditions: Liquid, Vacuum adiabatic calorimetry

CCCCCC[n+]1ccn(C)c1.O=S(=O)([N-]S(=O)(=O)C(F)(F)F)C(F)(F)F
Conditions | mass density, [1] [kg/m3] | molar heat capacity, [2] [J/K/mol]
288.72 K | – | 599.09 ± 36
288.87 K | – | 602.23 ± 36
289.04 K | – | 592.83 ± 36
289.17 K | – | 597.31 ± 36
289.3 K | – | 604.91 ± 36
289.44 K | – | 590.59 ± 35
289.57 K | – | 596.41 ± 36
289.7 K | – | 599.99 ± 36
289.83 K | – | 601.78 ± 36
297.45 K | – | 599.54 ± 36
297.76 K | – | 608.04 ± 37
297.89 K | – | 604.46 ± 36
298.02 K | – | 598.65 ± 36
298.15 K | – | 596.41 ± 36
298.28 K | – | 606.25 ± 36
298.41 K | – | 601.78 ± 36
298.53 K | – | 599.99 ± 36
298.66 K | – | 603.57 ± 36
301.64 K | – | 606.7 ± 36
301.75 K | – | 608.94 ± 37
301.88 K | – | 612.52 ± 37
302.01 K | – | 606.7 ± 36
302.13 K | – | 613.41 ± 37
302.26 K | – | 605.81 ± 36
304.3 K | – | 608.49 ± 37
304.69 K | – | 603.12 ± 36
304.82 K | – | 606.7 ± 36
304.95 K | – | 612.52 ± 37
305.08 K | – | 604.46 ± 36
305.2 K | – | 610.73 ± 37
305.33 K | – | 607.6 ± 36
305.46 K | – | 613.41 ± 37
305.59 K | – | 609.39 ± 37
314.15 K | – | 619.68 ± 37
314.57 K | – | 615.2 ± 37
314.69 K | – | 607.6 ± 36
314.82 K | – | 616.99 ± 37
314.94 K | – | 611.62 ± 37
315.07 K | – | 612.52 ± 37
315.2 K | – | 618.33 ± 37
315.32 K | – | 614.75 ± 37
315.45 K | – | 608.94 ± 37
320.89 K | – | 620.12 ± 37
321.17 K | – | 622.81 ± 38
321.3 K | – | 614.75 ± 37
321.42 K | – | 621.02 ± 37
321.55 K | – | 613.41 ± 37
321.67 K | – | 616.99 ± 37
321.79 K | – | 616.1 ± 37
321.92 K | – | 619.23 ± 37
322.04 K | – | 622.36 ± 37
322.16 K | – | 621.02 ± 37
322.29 K | – | 618.33 ± 37
322.41 K | – | 623.7 ± 38
323.89 K | – | 624.15 ± 38
324.15 K | – | 620.57 ± 37
324.28 K | – | 625.49 ± 38
324.4 K | – | 627.73 ± 38
324.52 K | – | 629.07 ± 38
324.65 K | – | 621.47 ± 37
324.77 K | – | 622.81 ± 38
324.89 K | – | 617.89 ± 37
325.02 K | – | 621.02 ± 37
325.14 K | – | 625.05 ± 38
325.24 K | – | 622.36 ± 37
325.26 K | 1344.14 ± 3.3 | 623.7 ± 38
333.63 K | – | 634.44 ± 38
333.82 K | – | 633.99 ± 38
333.94 K | – | 626.83 ± 38
334.06 K | – | 631.76 ± 38
334.18 K | – | 629.07 ± 38
334.3 K | – | 632.65 ± 38
334.42 K | – | 636.68 ± 38
334.54 K | – | 633.1 ± 38
334.66 K | – | 627.28 ± 38
334.79 K | – | 631.31 ± 38
334.91 K | – | 629.97 ± 38
339.73 K | – | 638.92 ± 38
339.83 K | – | 637.13 ± 38
339.95 K | – | 634.89 ± 38
340.03 K | – | 643.39 ± 38
340.15 K | – | 635.78 ± 38
340.27 K | – | 640.7 ± 38
340.39 K | – | 642.05 ± 38
340.51 K | – | 638.47 ± 38
344.34 K | – | 641.6 ± 38
344.46 K | – | 645.63 ± 39
344.58 K | – | 642.49 ± 38
344.7 K | – | 644.73 ± 38
344.82 K | – | 639.36 ± 38
344.93 K | – | 648.31 ± 39
345.05 K | – | 647.42 ± 39
345.17 K | – | 645.18 ± 39
345.29 K | – | 638.47 ± 38
345.41 K | – | 643.84 ± 38
348.64 K | – | 645.18 ± 39
348.76 K | – | 643.84 ± 38
348.88 K | – | 648.31 ± 39
348.99 K | – | 646.97 ± 39
349.11 K | – | 649.65 ± 39
349.23 K | – | 648.76 ± 39
349.35 K | – | 644.73 ± 38
349.47 K | – | 647.42 ± 39
349.58 K | – | 643.39 ± 38
349.65 K | – | 648.31 ± 39
349.7 K | – | 645.63 ± 39
349.82 K | – | 643.39 ± 38
349.94 K | – | 645.63 ± 39
350.05 K | – | 644.73 ± 38
350.17 K | – | 646.97 ± 39
350.29 K | – | 647.86 ± 39
350.36 K | 1323.92 ± 3.2 | 647.42 ± 39
